Data from patent publication US20080306166A1, “Compositions and Methods For Treatment of Disorders of Protein Aggregation” (priority 2004, published 2008).

Tests used:
[1] = Pilot in vivo studies with myo-cyclohexanehexyl; settings: data not shown
From the text: The TgCRND8 mice and non-transgenic littermates were assigned to sex- and age-matched cohorts that were then used to test the effectiveness of the cyclohexanehexyl stereoisomers as a therapeutic (with treatment delayed until five months of age and continued for one month until six months of age). […] The endpoints were cognitive function, brain Aβ levels, and neuropathology. […] Over the course of these experiments, observers were unaware of genotype or treatment group.

[2] = 6-18 grams/day/adult or 86-257 mg/Kg/day; cited from earlier work
Aβ = target: T1, Aβ (Homo sapiens, UniProt P05067); settings: cited from earlier work
T1 construct: Inositol stereoisomers stabilize an oligomeric aggregate of Alzheimer amyloid beta peptide
T1 sequence (P05067 672-713 limits assumed): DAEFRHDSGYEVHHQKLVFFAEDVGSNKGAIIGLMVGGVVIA

Aβ oligomers = settings: added pre-cond, positive control, previously shown; cited from earlier work

SMILES	benefit in pilot in vivo studies [1]	toxicity in humans or animals [2]	effectiveness in prior in vitro studies (Aβ)	production of Aβ oligomers (Aβ oligomers)
O[C@H]1[C@H](O)[C@@H](O)[C@H](O)[C@@H](O)[C@H]1O [myo-cyclohexanehexyl, 1,2,3,5/4,6-(myo-) cyclohexanehexyl]	no significant benefit	no toxicity	only weakly effective	–
Oc1cccc(Nc2ccc(Nc3cccc(O)c3)nn2)c1 [RS0406]	–	–	–	reduces the production of oligomers
